The text below walks through data of patent publication US20250387398A1, “NEW HIGH-EFFICIENCY ANTIMICROBIAL COMPOSITION” (CM4CURE S.A., priority 2023, published 2025).

Where two headings read alike, the source gives them in different places.

Series [1] has as its system Streptococcus mutans. As to conditions: cited from earlier work.
The conditions of series [2]: background, cited from earlier work.
Series [3] relates to Porphyromonas gingivalis. As to conditions: cited from earlier work.
Series [4] concerns Candida krusei. Conditions: cited from earlier work.
For series [5], the system named is Staphylococcus aureus (MRSA, ATCC 6538). As to the kind of experiment: Real-time microcalorimetric measurement of metabolic activity (Calscreener). In kind it is cell-based. As for the experimental part:
Staphylococcus aureus (MRSA, ATCC 6538) was grown overnight in TSB (tryptic soy broth) medium, before being diluted 1×10^6 fold in fresh TSB. Subsequently […] aliquots of diluted bacteria suspensions were respectively supplemented with 1 and 2 mg/L of chlorhexidine (digluconate solution, 20% in H2O, Merck). […] The aqueous solution of chlorhexidine and the ethanol-based solution of triafluocyl were kept refrigerated. Chlorhexidine, triafluocyl or both, and ethanol as a vehicle were added to the bacterial suspensions to obtain the given concentrations followed by a brief vortexing. Bacterial aliquots were then distributed in the dedicated non-activated inserts of a 48-well plate and grown for 24 h or more under static conditions at 37 C using Calscreener technology to measure bacterial growth and metabolic activity in Real-Time as described in https://cordis.europa.eu/project/id/784514.
In FIG. 3, one sees the real-time microcalorimetric measurements of bacterial metabolic activity expressed as the heat flow, providing S. aureus as an example of Gram-positive bacteria strain. The line A stands for control bacteria with a vehicle at 0.66% ethanol in TSB, whereas the line B represents bacteria treated respectively with 1 mg/L of triafluocyl; C—1 mg/L of chlorhexidine; D—2 mg/L of chlorhexidine; and E—1 mg/L of chlorhexidine with 1 mg/L of triafluocyl.
Staphylococcus aureus (MRSA, ATCC 6538) was grown overnight in TSB (tryptic soy broth) medium, before being diluted 1×10^6 fold in fresh TSB. Subsequently […] aliquots of diluted bacteria suspensions were respectively supplemented with 0.25, 0.5 and 1 μg/mL of chlorhexidine (digluconate solution, 20% in H2O, Merck) or alexidine dihydrochloride (stock solution of 3 mg/mL in ethanol, Merck).
The aqueous solution of chlorhexidine and the ethanol-based solution of alexidine were kept refrigerated. Chlorhexidine, alexidine, and ethanol as a vehicle were added to the bacterial suspensions to obtain the given concentrations followed by a brief vortexing. Bacterial aliquots were then distributed in the dedicated non-activated inserts of a 48-well plate and grown for 24 h or more under static conditions at 37 C using Calscreener technology to measure bacterial growth and metabolic activity in Real-Time as described in https://cordis.europa.eu/project/id/784514.
In FIG. 4 the real-time microcalorimetric measurements of bacterial metabolic activity is expressed as the heat flow, providing S. aureus as an example. The line A stands for control bacteria with a vehicle (ethanol), whereas the line B represents bacteria treated respectively with 0.25 mg/mL of chlorhexidine; C—0.5 mg/mL of chlorhexidine; D—1 mg/mL of chlorhexidine; E—0.25 mg/mL of alexidine; F −0.5 mg/mL of alexidine; and G—1 mg/mL of alexidine.
Staphylococcus aureus (MRSA, ATCC 6538) was grown overnight in TSB (tryptic soy broth) medium, before being diluted 1×10^6 fold in fresh TSB. Subsequently […] aliquots of diluted bacteria suspensions were respectively supplemented with […] of alexidine dihydrochloride (stock solution of 3 mg/mL in ethanol, Merck). […] The ethanol-based solutions of alexidine and fluometacyl were stored at −20° C. […]
In FIG. 5 real-time microcalorimetric measurements of bacterial metabolic activity is expressed as the heat flow, providing S. aureus as an example. […]

Series [6] concerns Candida tropicalis. As to conditions: cited from earlier work.
In series [7] the test system is Lactobacillus acidophilus. Conditions: cited from earlier work.
The test system of series [8] is Fusobacterium nucleatum. As to conditions: cited from earlier work.
For series [9], the system named is Staphylococcus aureus MRSA. As to conditions: cited from earlier work.
For series [10], the system named is Pseudomonas aeruginosa (PA). As to the kind of experiment: MIC in monotherapy and in combination (ISO standard 20776-1). It counts as cell-based. The source says: (§1) Summary Of MIC values for Fluometacyl (FLC)+Chlorhexidine (CHX) Tested Against MRSA, Enterococcusfaecalis (VRE), Pseudomonas aeruginosa (PA) and Candida albicans (CA).
(§2) By Minimum Inhibitory Concentration (MIC) one means the lowest concentration of antimicrobial that prevents visible growth of a microorganism (determined according to ISO standard 20776-1).
(§3) This finds an implication in combining many known antimicrobials together rather than discovering new chemical entities.

Series [11] concerns Candida albicans (CA). Described as above. It counts as cell-based.
Excerpt: as §1, §2, §3

Series [12] deals with Pseudomonas aeruginosa (ATCC 15442). Description: Real-time microcalorimetric measurement of metabolic activity (Calscreener). It counts as cell-based. As for the experimental part: Pseudomonas aeruginosa (ATCC 15442) was grown overnight in TSB (tryptic soy broth) medium, before being diluted 1×10^7 fold in fresh TSB. Subsequently […] aliquots of diluted bacteria suspensions were respectively supplemented with 1, 2, 4, 6, 12 and 24 mg/L of chlorhexidine (digluconate solution, 20% in H2O, Merck). The aqueous solution of chlorhexidine was kept refrigerated according to the manufacturer's technical sheet. Chlorhexidine or mQH2O as a vehicle were added to the bacterial suspensions to obtain the given concentrations followed by a brief vortexing. Bacterial aliquots were then distributed in the dedicated non-activated inserts of a 48-well plate and grown for 24 h or more under static conditions at 37 C using Calscreener technology to measure bacterial growth and metabolic activity in Real-Time as described in https://cordis.europa.eu/project/id/784514.
For the study of the combination of chlorhexidine and triafluocyl aforementioned diluted bacterial suspensions were supplemented with either chlorhexidine alone (1, 2, 4, 6, 12 mg/L) or mixed with triafluocyl (20 mg/L, Polpharma). Triafluocyl was stored in absolute ethanol in the refrigerator at a concentration of 3 mg/mL. […]
FIG. 1, illustrates a real-time microcalorimetric measurements of bacterial metabolic activity expressed as the heat flow, providing P. aeruginosa as an example. […]

Regarding `[H]/N=C(\N/C(=N/[H])NCCCCCCNC(=N)NC(=N)Nc1ccc(Cl)cc1)Nc1ccc(Cl)cc1` [Chlorhexidine, chlorhexidine], the MIC of chlorhexdine in series [1] is 0.9 to 4 µg/mL; in [3] it was 0.9 µg/mL; in series [4], 150 µg/mL; in series [6] it was 75 µg/mL; in series [7], 0.5 to 2 µg/mL; in [8], 1.8 µg/mL. Further, the results for the MIC of chlorhexdine in series [9], in series [9] (listed as chlorexhidrine) and in [9] (listed as chlorhexidrine) were 2 to 8 µg/mL, 1 to 8 µg/mL and 1 to 8 µg/mL, respectively. The solubility in water result in [2] (chlorhexidine base) is on record as “insoluble in water”. Besides, the “effect on growth (heat flow)” value in series [5] (chlorhexidine 1 mg/L, FIG. 3) is “strong shift in a metabolic activity”; in [5] (chlorhexidine 1 mg/mL, FIG. 4), “strong shift in a metabolic activity”.
As for `CCCSc1nc(N[C@@H]2C[C@H]2c2ccc(F)c(F)c2)c2nnn([C@@H]3C[C@H](O)[C@@H](O)[C@H]3O)c2n1` [Fluometacyl, (1S,2R,3S,4R)-4-[7-[[(1R,2S)-2-(3,4-Difluorophenyl)cyclopropyl]amino]-5-(propylthio)-3H-1,2,3-triazolo[4,5-d]pyrimidin-3-yl]-1,2,3-cyclopentanetriol], the “solubility in an aqueous environment or aqueous medium” value in [2] is given as “generally not soluble”. For the same compound, the “MIC Monotherapy (X)” value in [10] and in [11] was “Not detected” in each case.
Regarding `CCCSc1nc(N[C@@H]2C[C@H]2c2ccc(F)c(F)c2)c2nnn([C@@H]3C[C@H](OCCO)[C@@H](O)[C@H]3O)c2n1` [Triafluocyl, (1S,2S,3R,5S)-3-[7-[(1R,2S)-2-(3,4-difluorophenyl)cyclopropylamino]-5-(propylthio)-3H-[1,2,3]-triazolo[4,5-d]pyrimidin-3-yl]-5-(2-hydroxyethoxy)-1,2-cyclopentanediol], in series [2], the “solubility in an aqueous environment or aqueous medium” value is recorded as “generally not soluble”. Besides, the “effect on growth (heat flow)” value in [5] (triafluocyl 1 mg/L, FIG. 3) is “doesn't affect the growth”; in [12] (triafluocyl 20 mg/L, FIG. 2), “does not inhibit the growth”.
As to alexidine, the “effect on growth (heat flow)” value in [5] (alexidine 1 mg/mL, FIG. 4) is “full growth inhibition”; in series [12] (alexidine 4 mg/mL, FIG. 6), “strong growth inhibition”. Further, the “effect on growth (heat flow), compared with chlorhexidine” value in series [5] (alexidine 0.25 and 0.5 mg/mL, FIG. 4) is reported as “noticeably stronger effect”.
